Species on record: Rattus norvegicus
Assay: Open TG-GATES - Regimen: Single
Type: toxicity, organism-based, Sprague-Dawley
Parameters: regimen Single, gender Male, age 6 weeks
Conditions: in vivo, po, 15 mg/kg, route gavage, dose level Low; for APTT / Bas / Eos / Fbg / Hb / Ht / Lym / MCH / MCHC / MCV / Mono / Neu / PT / Plat / RBC / Ret / WBC: tissue Blood; for KIDNEY_L / KIDNEY_R / KIDNEY_TOTAL: tissue Kidney; for LIVER: tissue Liver; for A/G / ALP / ALT / AST / BUN / CRE / Ca / Cl / DBIL / GLC / IP / K / LDH / Na / PL / RALB / TBIL / TC / TG / TP / gamma-GTP: tissue Plasma

CC(C)C(=O)Nc1ccc([N+](=O)[O-])c(C(F)(F)F)c1 [FLUTAMIDE]
TERMINAL_BW (3 h): 209 g
APTT (3 h): 19 s
Bas (3 h): 0%
Eos (3 h): 0.8%
Fbg (3 h): 219.6 mg/dL
Hb (3 h): 13.5 g/dL
Ht (3 h): 39.7%
Lym (3 h): 80%
MCH (3 h): 22 pg
MCHC (3 h): 33.9%
MCV (3 h): 64.6 fL
Mono (3 h): 3%
Neu (3 h): 14.6%
PT (3 h): 12.6 s
Plat (3 h): 128.6 x10_4/uL
RBC (3 h): 615.6 x10_4/ul
Ret (3 h): 7.5%
WBC (3 h): 110 x10_2/uL
KIDNEY_L (3 h): 0.9 g
KIDNEY_R (3 h): 0.9 g
KIDNEY_TOTAL (3 h): 1.8 g
LIVER (3 h): 9.3 g
A/G (3 h): 1.7
ALP (3 h): 1106 IU/L
ALT (3 h): 39 IU/L
AST (3 h): 69.6 IU/L
BUN (3 h): 12 mg/dL
CRE (3 h): 0.4 mg/dL
Ca (3 h): 11 mg/dL
Cl (3 h): 103 meq/L
DBIL (3 h): 0.2 mg/dL
GLC (3 h): 212.6 mg/dL
IP (3 h): 9.8 mg/dL
K (3 h): 3.7 meq/L
LDH (3 h): 187.2 IU/L
Na (3 h): 140.4 meq/L
PL (3 h): 177.2 mg/dL
RALB (3 h): 3.5 g/dL
TBIL (3 h): 0.3 mg/dL
TC (3 h): 87.8 mg/dL
TG (3 h): 127 mg/dL
TP (3 h): 5.6 g/dL
gamma-GTP (3 h): 1.2 IU/L
TERMINAL_BW (6 h): 207.2 g
APTT (6 h): 19.3 s
Bas (6 h): 0%
Eos (6 h): 0.8%
Fbg (6 h): 228.6 mg/dL
Hb (6 h): 13.3 g/dL
Ht (6 h): 39.1%
Lym (6 h): 78.2%
MCH (6 h): 21.8 pg
MCHC (6 h): 34%
MCV (6 h): 63.9 fL
Mono (6 h): 3.6%
Neu (6 h): 16.8%
PT (6 h): 12.7 s
Plat (6 h): 126.9 x10_4/uL
RBC (6 h): 611.2 x10_4/ul
Ret (6 h): 7.5%
WBC (6 h): 103.4 x10_2/uL
KIDNEY_L (6 h): 0.9 g
KIDNEY_R (6 h): 0.9 g
KIDNEY_TOTAL (6 h): 1.8 g
LIVER (6 h): 9.3 g
A/G (6 h): 1.7
ALP (6 h): 1000.8 IU/L
ALT (6 h): 37 IU/L
AST (6 h): 69.6 IU/L
BUN (6 h): 8.8 mg/dL
CRE (6 h): 0.3 mg/dL
Ca (6 h): 10.6 mg/dL
Cl (6 h): 103.2 meq/L
DBIL (6 h): 0.1 mg/dL
GLC (6 h): 194.8 mg/dL
IP (6 h): 9.7 mg/dL
K (6 h): 4 meq/L
LDH (6 h): 154 IU/L
Na (6 h): 140 meq/L
PL (6 h): 159.2 mg/dL
RALB (6 h): 3.5 g/dL
TBIL (6 h): 0.2 mg/dL
TC (6 h): 88.2 mg/dL
TG (6 h): 53.8 mg/dL
TP (6 h): 5.6 g/dL
gamma-GTP (6 h): 1.2 IU/L
TERMINAL_BW (9 h): 204.9 g
APTT (9 h): 18 s
Bas (9 h): 0%
Eos (9 h): 1%
Fbg (9 h): 213.6 mg/dL
Hb (9 h): 13.6 g/dL
Ht (9 h): 39.8%
Lym (9 h): 77.2%
MCH (9 h): 21.8 pg
MCHC (9 h): 34.2%
MCV (9 h): 63.6 fL
Mono (9 h): 3.6%
Neu (9 h): 17.6%
PT (9 h): 13 s
Plat (9 h): 121.6 x10_4/uL
RBC (9 h): 624.8 x10_4/ul
Ret (9 h): 7.7%
WBC (9 h): 91.2 x10_2/uL
KIDNEY_L (9 h): 0.9 g
KIDNEY_R (9 h): 0.9 g
KIDNEY_TOTAL (9 h): 1.9 g
LIVER (9 h): 8.4 g
A/G (9 h): 1.6
ALP (9 h): 967.8 IU/L
ALT (9 h): 31.8 IU/L
AST (9 h): 62.2 IU/L
BUN (9 h): 10.6 mg/dL
CRE (9 h): 0.3 mg/dL
Ca (9 h): 10.3 mg/dL
Cl (9 h): 103.8 meq/L
DBIL (9 h): 0.082 mg/dL
GLC (9 h): 207.8 mg/dL
IP (9 h): 9.8 mg/dL
K (9 h): 3.7 meq/L
LDH (9 h): 182.2 IU/L
Na (9 h): 141.8 meq/L
PL (9 h): 131.4 mg/dL
RALB (9 h): 3.4 g/dL
TBIL (9 h): 0.1 mg/dL
TC (9 h): 69.8 mg/dL
TG (9 h): 45.4 mg/dL
TP (9 h): 5.6 g/dL
gamma-GTP (9 h): 0.8 IU/L
TERMINAL_BW (24 h): 218.9 g
APTT (24 h): 17.6 s
Bas (24 h): 0%
Eos (24 h): 1%
Fbg (24 h): 212 mg/dL
Hb (24 h): 13.6 g/dL
Ht (24 h): 40.3%
Lym (24 h): 78.6%
MCH (24 h): 22 pg
MCHC (24 h): 33.8%
MCV (24 h): 64.9 fL
Mono (24 h): 3.8%
Neu (24 h): 16%
PT (24 h): 12.5 s
Plat (24 h): 125.4 x10_4/uL
RBC (24 h): 621.2 x10_4/ul
Ret (24 h): 6.6%
WBC (24 h): 79.6 x10_2/uL
KIDNEY_L (24 h): 0.9 g
KIDNEY_R (24 h): 1 g
KIDNEY_TOTAL (24 h): 1.9 g
LIVER (24 h): 10.7 g
A/G (24 h): 1.7
ALP (24 h): 981 IU/L
ALT (24 h): 39 IU/L
AST (24 h): 72.2 IU/L
BUN (24 h): 13.8 mg/dL
CRE (24 h): 0.4 mg/dL
Ca (24 h): 10.4 mg/dL
Cl (24 h): 104.6 meq/L
DBIL (24 h): 0.094 mg/dL
GLC (24 h): 205.6 mg/dL
IP (24 h): 7.1 mg/dL
K (24 h): 3.8 meq/L
LDH (24 h): 155.2 IU/L
Na (24 h): 141.8 meq/L
PL (24 h): 146 mg/dL
RALB (24 h): 3.5 g/dL
TBIL (24 h): 0.2 mg/dL
TC (24 h): 81.2 mg/dL
TG (24 h): 83.4 mg/dL
TP (24 h): 5.5 g/dL
gamma-GTP (24 h): 1 IU/L

Source: ChEMBL document CHEMBL3885861, “Open TG-GATES”
